The test system of experiment [1] is Staphylococcus aureus UC ® No. 9213. Nature of the experiment: In vitro antimicrobial activity (MIC, agar dilution, Mueller Hinton agar), S. aureus UC 9213. Format: cell-based. The following applies: UC9213, 35° C., 18 hours, read-out: Minimum inhibitory concentration (MIC), S. a. 9213. On the procedure:
(§1) Antimicrobial activity was tested in vitro using the procedure described in National Committee for Clinical Laboratory Standards. Methods for dilution antimicrobial susceptibility tests for bacteria that grow aerobically are disclosed in the third edition of Approved Standard, NCCLS Document M7-A3, Villanova, Pa., 1993. Minimum inhibitory concentration (MIC) values were determined by an agar dilution method (1) in which the test medium was Mueller Hinton agar (MHA; Difco Laboratories, Detroit, Mich.) supplemented with 1% Supplement C (Difco). Serial two-fold dilutions of each compound were prepared using 1.0 ml volumes of sterile distilled water. To each 1.0 ml aliquot was added 9.0 ml of molten agar medium. The drug-supplemented agar was mixed, poured into 15×100 mm petri dishes, and allowed to solidify and dry at room temperature prior to inoculation. The test cultures were grown aerobically overnight at 35° C. on MHA; streptococcal strains were grown on Trypticase Soy Blood Agar Base EH (Difco) supplemented with 5% defibrinated sheep blood (BBL, Becton Dickinson Company, Cockeysville, Md.). Colonies were harvested with a sterile swab, and cell suspensions were prepared in Trypticase Soy Broth (TSB; Becton Dickinson Company) to equal the turbidity of a 0.5 McFarland standard. A 1:19 dilution of the suspension was made in TSB; this diluted suspension constituted the inoculum for the assay. The plates containing the drug-supplemented agar were inoculated with a 0.001 ml drop of the cell suspensions using a Steers replicator (Melrose Machine Shop, Woodlyn, Pa.), yielding approximately 10^4 -10^5 cells per spot. The plates were incubated aerobically at 35° C. for 18 hours and the MIC was read as the lowest concentration of drug that inhibited visible growth of the organism. The growth of a single colony was considered to be negative.
(Agar dilution tests growth on a series of plates holding different concentrations.)

Experiment [2] relates to Enterococcus faecalis UC ® No. 9217. Nature of the experiment: In vitro antimicrobial activity (MIC, agar dilution, Mueller Hinton agar), E. faecalis UC 9217. Format: cell-based. The following applies: UC9217, 35° C., 18 hours, read-out: Minimum inhibitory concentration (MIC), E. f. 9217. On the procedure: as §1
Experiment [3] concerns Streptococcus Pneumoniae UC ® No. 9912. Nature of the experiment: In vitro antimicrobial activity (MIC, agar dilution, Mueller Hinton agar), S. pneumoniae UC 9912. Format: cell-based. The following applies: UC9912, 35° C., 18 hours, read-out: Minimum inhibitory concentration (MIC), S. p. 9912. Here is the method: as §1
The test system of a further experiment is S, aureus UC ® No. 9213. The following applies: Antimicrob. Agents Chemother. 1996 and ICAAC 1995 posters; cited from earlier work.

≈ marks a conversion by molar mass, not a printed value.

`CC(=O)NCC1CC(c2ccc(C3=CCN(C(C)=O)CC3)cc2)=NO1` (stereo not shown) [Example 7, N-[[4,5-Dihydro-3-[4-[1,2,3,6-tetrahydro-1-(acetyl)-4-pyridinyl]phenyl]-5-isoxazolyl]methyl]acetamide]: the MIC in experiment [1] turned out to be 8 µg/mL (≈ 23.4 µM); in experiment [2], 16 µg/mL (≈ 46.9 µM); in experiment [3] it was 2 µg/mL (≈ 5.86 µM).

For `CC(=O)NCC1CC(c2ccc(C3=CCN(C(=O)CO)CC3)cc2)=NO1` (stereo not shown) [Example 4, N-[[4,5-Dihydro-3-[4-[1,2,3,6-tetrahydro-1-(hydroxyacetyl)-4-pyridinyl]phenyl]-5-isoxazolyl]methyl]acetamide], the MIC worked out at 4 µg/mL (≈ 11.2 µM) in experiment [1], 8 µg/mL (≈ 22.4 µM) in experiment [2] and 2 µg/mL (≈ 5.6 µM) in experiment [3].

In the case of `CC(=O)NC[C@H]1CC(c2ccc(-c3ccncc3)cc2)=NO1` [Example 8, (R)-N-[[4,5-Dihydro-3-[4-(4-pyridinyl)phenyl]-5-isoxazolyl]methyl]acetamide], the MIC in experiment [1] was 1 µg/mL (≈ 3.39 µM); in experiment [2], 2 µg/mL (≈ 6.77 µM); in experiment [3], 0.25 µg/mL (≈ 0.846 µM).

As for `CC(=O)NC[C@H]1CN(c2ccc(N3CCN(C(=O)CO)CC3)c(F)c2)C(=O)O1` [Example U-100592], in the experiment on S, aureus UC ® No. 9213, the “potency of U-100592 versus vancomycin in this animal model” value is on record as “equipotent to vancomycin”.

On to `COc1ccc(-c2ccc(C3=NOC(CNC(C)=O)C3)cc2)ccc1=O` (racemic) [Example 1, N-[[4,5-Dihydro-3-[4-(4-methoxy-5-oxo-1,3,6-cycloheptatrien-1-yl)phenyl]-5-isoxazolyl]methyl]acetamide], for which the MIC in experiment [1] stood at 4 µg/mL (≈ 11.4 µM); in experiment [2] it was 4 µg/mL (≈ 11.4 µM); in experiment [3] it was 1 µg/mL (≈ 2.84 µM).

On to `CC(=O)NC[C@H]1CC(c2ccc(C3=CCN(C(=O)CO)CC3)cc2)=NO1` [Example 5, (R)-N-[[4,5-Dihydro-3-[4-[1,2,3,6-tetrahydro-1-(hydroxyacetyl)-4-pyridinyl]phenyl]-5-isoxazolyl]methyl]acetamide], for which the MIC in experiment [1] came to 2 µg/mL (≈ 5.6 µM); in experiment [2], 4 µg/mL (≈ 11.2 µM); in experiment [3], 0.5 µg/mL (≈ 1.4 µM).

Regarding `COC(=O)N1CC=C(c2ccc(C3=NOC(CNC(C)=O)C3)cc2)CC1` (stereo not shown) [Example 6, Methyl 4-[4-[5-[(acetylamino)methyl]-4,5-dihydro-3-isoxazolyl]phenyl]-3,6-dihydro-1(2H)-pyridinecarboxylate], the MIC in experiment [1] is 16 µg/mL (≈ 44.8 µM); in experiment [2], 16 µg/mL (≈ 44.8 µM); in experiment [3], 4 µg/mL (≈ 11.2 µM).

(Values after patent publication US5990136A, “Isoxazoline derivatives useful as antimicrobials” (Pharmacia & Upjohn Company, priority 1997, dated 1999).)
